Biological target: T1, human DGAT2 (hDGAT2) (Homo sapiens, UniProt Q96PD7)
T1 construct: made in house; host or cells: Sf-9 insect cells (baculovirus), membrane fraction
T1 sequence (Q96PD7 1-388): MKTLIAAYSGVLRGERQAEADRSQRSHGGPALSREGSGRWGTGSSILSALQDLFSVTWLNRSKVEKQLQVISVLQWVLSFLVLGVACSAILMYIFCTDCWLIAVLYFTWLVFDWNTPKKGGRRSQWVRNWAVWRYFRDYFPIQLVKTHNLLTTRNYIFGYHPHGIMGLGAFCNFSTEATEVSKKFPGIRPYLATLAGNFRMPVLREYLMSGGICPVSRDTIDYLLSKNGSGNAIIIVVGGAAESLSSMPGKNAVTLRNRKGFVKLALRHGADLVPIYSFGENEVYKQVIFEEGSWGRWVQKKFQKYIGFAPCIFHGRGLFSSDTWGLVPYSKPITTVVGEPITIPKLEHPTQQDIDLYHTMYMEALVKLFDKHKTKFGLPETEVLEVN
Experiment: DGAT2 Enzymatic Activity Assay
Assay type: biochemical
Conditions: membrane prep of Sf-9 cells expressing hDGAT2; 25 μM diolein, 5 μM 13C oleoyl-CoA; 13C18-triolein by LC/MS/MS; read-out: DGAT2 IC50
Experimental: Insect Cell Expression and Membrane Preparation
Sf-9 insect cells were maintained in Grace's insect cell culture medium with 10% heated-inactivated fetal bovine serum, 1% Pluronic F-68 and 0.14 μg/ml Kanamycine sulfate at 27° C. in a shaker incubator. After infection with untagged baculovirus expressing human DGAT2 (hDGAT2) at multiplicity of infection (MOI) 3 for 48 hours, cells were harvested. Cell pellets were suspended in buffer containing 10 mM Tris-HCl pH 7.5, 1 mM EDTA, 250 mM sucrose and Complete Protease Inhibitor Cocktail (Sigma Aldrich), and sonicated on ice. Cell debris were removed by centrifugation at 2000×g for 15 minutes. Membrane fractions were isolated by ultracentrifugation (100,000×g), resuspended in the same buffer, and frozen (−80° C.) for later use. The protein concentration was determined with the Pierce™ BCA Protein Assay Kit (Thermo Fisher Scientific). Expression of protein levels was analyzed by immunoblotting with rabbit anti-DGAT2 antibody (Abcam, ab102831) and donkey anti-rabbit IgG H&L Alexa Fluor® 647 (Abcam, ab150075) followed by detection using Typhoon FLA9000 (GE Healthcare).
LC/MS/MS analyses were performed using Thermal Fisher's LX4-TSQ Vantage system. This system consists of an Agilent binary high-performance liquid chromatography (HPLC) pump and a TSQ Vantage triple quadrupole MS/MS instrument. For each sample, 2 μL samples from the top organic layer of in-plate liquid-liquid extraction were injected onto a Thermo Betabasic C4 column (2.1 mm×20 mm, 5 μm particle size). The samples were then eluted using the following conditions; mobile phase: Isopropanol:acetonitrile/10 mM ammonium formate=50/35/15 (v/v/v), flow rate: 0.8 mL/min, temperature: 25° C. Data was acquired in positive mode using a heated electrospray ionization (HESI) interface. The operational parameters for the TSQ Vantage MS/MS instrument were a spray voltage of 3000 V, capillary temperature of 280° C., vaporizer temperature 400° C., sheath gas 45 arbitrary unit, Aux gas 10 arbitrary units, S-lens 165 and collision gas 1.0 mTorr. […] (SRM) chromatograms of ^13C18-triolein (Q1: 920.8>Q3: 621.3) and internal standard ^13C21-triolein (Q1: 923.8>Q3: 617.3) were collected for 33 sec. The peak area was integrated by Xcalibur Quan software. The ratio between the ^13C18triolein generated in the reaction and spiked in internal standard ^13C21-triolein was used to generate percentage inhibition and IC50 values. Compound percentage inhibition was calculated by the following formula: Inhibition %=1−[(compound response−low control)/(high control−low control)]×100%. Potent compounds were titrated and IC50 were calculated by 4 parameter sigmoidal curve fitting formula.
DGAT2 Enzymatic Activity Assay
DGAT2 activity was determined by measuring the amount of enzymatic product ^13C18-triolein (^13C-1,2,3-Tri(cis-9-octadecenoyl)glycerol) using the membrane prep mentioned above. The assay was carried out in ABgene 384-well assay plates in a final volume of 25 μL at rt. The assay mixture contained the following: assay buffer (100 mM Tris·Cl, pH 7.0, 20 mM MgCl2, 5% ethanol), 25 μM of diolein, 5 μM of ^13C oleoyl-CoA and 8 ng/μL of DGAT2 membrane.

IC50 [nM] | Compound
12 | CC(C(F)F)n1c(=O)n(-c2cccc(OC(F)F)c2)c2ccc(C(=O)NC3(C)CCS(=O)(=O)CC3)cc21 (single isomer, unassigned) [Example 45a, 1-(3-(Difluoromethoxy)phenyl)-3-(1,1-difluoropropan-2-yl)-N-(4-methyl-1,1-dioxidotetrahydro-2H-thiopyran-4-yl)-2-oxo-2,3-dihydro-1H-benzo[d]imidazole-5-carboxamide]
101 | CC(C(F)F)n1c(=O)n(-c2cccc(OC(F)F)c2)c2ccc(C(=O)NC3(C)CCS(=O)(=O)CC3)cc21 (single isomer, unassigned) [Example 45b, 1-(3-(Difluoromethoxy)phenyl)-3-(1,1-difluoropropan-2-yl)-N-(4-methyl-1,1-dioxidotetrahydro-2H-thiopyran-4-yl)-2-oxo-2,3-dihydro-1H-benzo[d]imidazole-5-carboxamide]
81 | CCC(C)n1c(=O)n(-c2cccc(OC(F)F)c2)c2ccc(C(=O)NC3(C)CS(=O)(=O)C3)cc21 (single isomer, unassigned) [Example 46a, 3-(sec-butyl)-1-(3-(difluoromethoxy)phenyl)-N-(3-methyl-1,1-dioxidothietan-3-yl)-2-oxo-2,3-dihydro-1H-benzo[d]imidazole-5-carboxamide]
92 | CCC(C)n1c(=O)n(-c2cccc(OC(F)F)c2)c2ccc(C(=O)NC3(C)CS(=O)(=O)C3)cc21 (single isomer, unassigned) [Example 46b, 3-(sec-butyl)-1-(3-(difluoromethoxy)phenyl)-N-(3-methyl-1,1-dioxidothietan-3-yl)-2-oxo-2,3-dihydro-1H-benzo[d]imidazole-5-carboxamide]
1.1 | CC(n1c(=O)n(-c2cc(OC(F)F)ccc2F)c2ccc(C(=O)NC3(C)CCS(=O)(=O)CC3)cc21)C(C)(C)O (single isomer, unassigned) [Example 66a, 1-(5-(difluoromethoxy)-2-fluorophenyl)-3-(3-hydroxy-3-methylbutan-2-yl)-N-(4-methyl-1,1-dioxidotetrahydro-2H-thiopyran-4-yl)-2-oxo-2,3-dihydro-1H-benzo[d]imidazole-5-carboxamide]
16.9 | CC(n1c(=O)n(-c2cc(OC(F)F)ccc2F)c2ccc(C(=O)NC3(C)CCS(=O)(=O)CC3)cc21)C(C)(C)O (single isomer, unassigned) [Example 66b, 1-(5-(difluoromethoxy)-2-fluorophenyl)-3-(3-hydroxy-3-methylbutan-2-yl)-N-(4-methyl-1,1-dioxidotetrahydro-2H-thiopyran-4-yl)-2-oxo-2,3-dihydro-1H-benzo[d]imidazole-5-carboxamide]
1.6 | CC(n1c(=O)n(-c2cccc(OC(F)F)c2)c2ccc(C(=O)NC3(C)CCS(=O)(=O)CC3)cc21)C(C)(C)O (single isomer, unassigned) [Example 67a, 1-(3-(difluoromethoxy)phenyl)-3-(3-hydroxy-3-methylbutan-2-yl)-N-(4-methyl-1,1-dioxidotetrahydro-2H-thiopyran-4-yl)-2-oxo-2,3-dihydro-1H-benzo[d]imidazole-5-carboxamide]
211 | CC(n1c(=O)n(-c2cccc(OC(F)F)c2)c2ccc(C(=O)NC3(C)CCS(=O)(=O)CC3)cc21)C(C)(C)O (single isomer, unassigned) [Example 67b, 1-(3-(difluoromethoxy)phenyl)-3-(3-hydroxy-3-methylbutan-2-yl)-N-(4-methyl-1,1-dioxidotetrahydro-2H-thiopyran-4-yl)-2-oxo-2,3-dihydro-1H-benzo[d]imidazole-5-carboxamide]
4.1 | CC(n1c(=O)n(-c2cccc(OCC(F)F)c2)c2ccc(C(=O)NC3(C)CCS(=O)(=O)CC3)cc21)C(C)(C)O (single isomer, unassigned) [Example 68a, 1-(3-(2,2-difluoroethoxy)phenyl)-3-(3-hydroxy-3-methylbutan-2-yl)-N-(4-methyl-1,1-dioxidotetrahydro-2H-thiopyran-4-yl)-2-oxo-2,3-dihydro-1H-benzo[d]imidazole-5-carboxamide]
1.8 | CC(n1c(=O)n(-c2cccc(OCC(F)F)c2)c2ccc(C(=O)NC3(C)CCS(=O)(=O)CC3)cc21)C(C)(C)O (single isomer, unassigned) [Example 68b, 1-(3-(2,2-difluoroethoxy)phenyl)-3-(3-hydroxy-3-methylbutan-2-yl)-N-(4-methyl-1,1-dioxidotetrahydro-2H-thiopyran-4-yl)-2-oxo-2,3-dihydro-1H-benzo[d]imidazole-5-carboxamide]
9.7 | CCOc1cc(-n2c(=O)n(C(C)C(C)(C)O)c3cc(C(=O)NC4(C)CCS(=O)(=O)CC4)ccc32)c(F)cn1 (single isomer, unassigned) [Example 69a, 1-(2-ethoxy-5-fluoropyridin-4-yl)-3-(3-hydroxy-3-methylbutan-2-yl)-N-(4-methyl-1,1-dioxidotetrahydro-2H-thiopyran-4-yl)-2-oxo-2,3-dihydro-1H-benzo[d]imidazole-5-carboxamide]
3.9 | CCOc1cc(-n2c(=O)n(C(C)C(C)(C)O)c3cc(C(=O)NC4(C)CCS(=O)(=O)CC4)ccc32)c(F)cn1 (single isomer, unassigned) [Example 69b, 1-(2-ethoxy-5-fluoropyridin-4-yl)-3-(3-hydroxy-3-methylbutan-2-yl)-N-(4-methyl-1,1-dioxidotetrahydro-2H-thiopyran-4-yl)-2-oxo-2,3-dihydro-1H-benzo[d]imidazole-5-carboxamide]

Same assay, conditions: membrane prep of Sf-9 cells expressing hDGAT2; 25 μM diolein, 5 μM 13C oleoyl-CoA; 13C18-triolein by LC/MS/MS; read-out: Human DGAT2 IC50

IC50 [nM] | Compound
53 | CC(n1c(=O)n(-c2cc(OC(F)F)ccc2F)c2ccc(C(=O)NC3(C)CS(=O)(=O)C3)cc21)C(C)(C)O (single isomer, unassigned) [EX-65a, 1-(5-(difluoromethoxy)-2-fluorophenyl)-3-(3-hydroxy-3-methylbutan-2-yl)-N-(3-methyl-1,1-dioxidothietan-3-yl)-2-oxo-2,3-dihydro-1H-benzo[d]imidazole-5-carboxamide]
0.7 | CC(n1c(=O)n(-c2cc(OC(F)F)ccc2F)c2ccc(C(=O)NC3(C)CS(=O)(=O)C3)cc21)C(C)(C)O (single isomer, unassigned) [EX-65b, 1-(5-(difluoromethoxy)-2-fluorophenyl)-3-(3-hydroxy-3-methylbutan-2-yl)-N-(3-methyl-1,1-dioxidothietan-3-yl)-2-oxo-2,3-dihydro-1H-benzo[d]imidazole-5-carboxamide]
551 | CC(C(N)=O)n1c(=O)n(-c2cccc(OC(F)F)c2)c2ccc(C(=O)NC3(C)CCS(=O)(=O)CC3)cc21 (single isomer, unassigned) [EX-85a, 3-(1-amino-1-oxopropan-2-yl)-1-(3-(difluoromethoxy)phenyl)-N-(4-methyl-1,1-dioxidotetrahydro-2H-thiopyran-4-yl)-2-oxo-2,3-dihydro-1H-benzo[d]imidazole-5-carboxamide]
1750 | CC(C(N)=O)n1c(=O)n(-c2cccc(OC(F)F)c2)c2ccc(C(=O)NC3(C)CCS(=O)(=O)CC3)cc21 (single isomer, unassigned) [EX-85b, 3-(1-amino-1-oxopropan-2-yl)-1-(3-(difluoromethoxy)phenyl)-N-(4-methyl-1,1-dioxidotetrahydro-2H-thiopyran-4-yl)-2-oxo-2,3-dihydro-1H-benzo[d]imidazole-5-carboxamide]

— patent US11976061B2, “Preparation of benzimidazolone derivatives as novel diacylglyceride O-acyltransferase 2 inhibitors” (Merck Sharp & Dohme LLC, priority 2020, dated 2024)
